Nine compounds from US8372837B2, “Pyridone and pyridazone analogues as GPR119 modulators” (Bristol-Myers Squibb Company, priority 2008, dated 2013) can be followed below.

The target in the assay is T1, hGPR119 (Homo sapiens, UniProt Q8TDV5).
T1 construct: expressed in transfected cells; host or cells: Flp-In T-REx 293 (tetracycline-inducible)
T1 sequence (Q8TDV5 1-335): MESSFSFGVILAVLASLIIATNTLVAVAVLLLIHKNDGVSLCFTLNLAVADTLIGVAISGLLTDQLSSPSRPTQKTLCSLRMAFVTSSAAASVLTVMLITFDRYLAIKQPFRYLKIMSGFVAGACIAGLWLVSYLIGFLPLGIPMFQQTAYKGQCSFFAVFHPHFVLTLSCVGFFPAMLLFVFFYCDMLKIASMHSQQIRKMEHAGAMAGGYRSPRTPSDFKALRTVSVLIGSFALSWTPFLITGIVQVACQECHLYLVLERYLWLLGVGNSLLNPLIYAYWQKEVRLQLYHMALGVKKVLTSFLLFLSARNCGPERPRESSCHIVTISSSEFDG
The assay is described as follows: Human Tet-inducible cAMP assay. The format is cell-based. The settings on record: Flp-In T-REx 293 tetracycline inducible cells expressing GPR119; cAMP by HITHUNTER kit; 1 hour incubation. As for the experimental part: The in vitro modulation of recombinant human GPR119 was determined as follows.
Human Tet-Inducible cAMP Assay
Cell lines expressing GPR119 are generated using the Flp-In T-REx 293 tetracycline inducible gene expression system are cultured in culture medium comprising the following components: DMEM#11965, 10% FBS, 2 mM L-glutamine, 200 ug/ml Hygromycin B, and 15 ug/ml blasticidin.
For cAMP assays, cells are plated on 96 well plates (e.g., BD Falcon: REF 353948, black side, clear bottom, TC surface) at a density of about 4.5×10^4 cells per well in growth medium containing 1.0 ug/ml tetracycline (1.0 mg/ml stock). The cells are then incubated for 48 hours at 37° C.
Following the incubation, the growth medium is removed from the wells and the wells rinsed (once) with the assay buffer included in the HITHUNTER® cAMP kit (100 μl/well). Following the wash, 20 μl of assay buffer is added to each well, followed by addition of 10 μl of a 3× concentration compound working solution. The solution is then mixed. The final concentration range of compound is from about 10^−5M to about 10^−11 M. The reagents are then incubated at 37° C. at 5% CO2 for 1 hour.
The manufacturer's protocol may be followed for cAMP determination. The HITHUNTER® cAMP kit protocol is outlined for the HIT-T15 cAMP assays described above.
Compounds of the present invention were tested in the Human Tet-inducible cAMP assay described immediately above and the results shown in Table 1 below were obtained.
(cAMP levels reflect the balance of adenylyl cyclase and phosphodiesterase activity.)
The EC50 is the concentration needed to bring the measured effect to its halfway point. In turn, `CC(C)(C)OC(=O)N1CCC(Oc2cc(=O)n(-c3ccc(Br)c(F)c3)nc2C#N)CC1` [Example 45, tert-Butyl 4-(1-(4-bromo-3-fluorophenyl)-3-cyano-6-oxo-1,6-dihydropyridazin-4-yloxy)piperidine-1-carboxylate] returned an EC50 of 95 nM. As for `CC(C)(C)OC(=O)N1CCC(Oc2cc(=O)n(-c3ccc(S(C)(=O)=O)cc3)nc2C#N)CC1` [Example 31, tert-Butyl 4-(3-cyano-1-(4-(methylsulfonyl)phenyl)-6-oxo-1,6-dihydropyridazin-4-yloxy)piperidine-1-carboxylate], the figure is 83 nM. Consider `N#Cc1nn(-c2ccc(Cl)c(Cl)c2)c(=O)cc1OC1CCN(c2ncc(C(F)(F)F)cn2)CC1` [Example 26, 1-(3,4-Dichlorophenyl)-6-oxo-4-(1-(5-(trifluoromethyl)pyrimidin-2-yl)piperidin-4-yloxy)-1,6-dihydropyridazine-3-carbonitrile], for which a half-maximal response (EC50) required 5 nM. Turning to `CCCc1cnc(N2CCC(Oc3cc(=O)n(-c4ccc(C#N)c(F)c4)nc3C#N)CC2)nc1` [Example 38, 1-(4-Cyano-3-fluorophenyl)-6-oxo-4-(1-(5-propylpyrimidin-2-yl)piperidin-4-yloxy)-1,6-dihydropyridazine-3-carbonitrile], the half-maximal effective concentration (EC50) stood at 8 nM. On to `COC(=O)c1nn(-c2ccc(C#N)c(F)c2)c(=O)cc1OC1CCN(c2ncc(Br)cn2)CC1` [Example 42, Methyl 4-(1-(5-bromopyrimidin-2-yl)piperidin-4-yloxy)-1-(4-cyano-3-fluorophenyl)-6-oxo-1,6-dihydropyridazine-3-carboxylate], for which the concentration for a half-maximal effect (EC50) was 107 nM. As for `CC(C)(C)OC(=O)N1CCC(Oc2cc(=O)n(-c3ccc(C#N)c(F)c3)nc2C#N)CC1` [Example 34, tert-Butyl 4-(3-cyano-1-(4-cyano-3-fluorophenyl)-6-oxo-1,6-dihydropyridazin-4-yloxy)piperidine-1-carboxylate], the figure is 3 nM; as for `CC(C)(C)OC(=O)N1CCC(Oc2cc(=O)n(-c3ccc(Cl)c(Cl)c3)nc2C(N)=O)CC1` [Example 16, tert-Butyl 4-(3-carbamoyl-1-(3,4-dichlorophenyl)-6-oxo-1,6-dihydropyridazin-4-yloxy)piperidine-1-carboxylate], 3390 nM; as for `COC(=O)c1nn(-c2ccc(S(C)(=O)=O)cc2)c(=O)cc1OC1CCN(C(=O)OC(C)(C)C)CC1` [Example 18, Methyl 4-(1-(tert-butoxycarbonyl)piperidin-4-yloxy)-1-(4-(methylsulfonyl)phenyl)-6-oxo-1,6-dihydropyridazine-3-carboxylate], 4010 nM. As for `CC(=O)c1cnc(N2CCC(Oc3cnn(-c4ccc(S(C)(=O)=O)cc4)c(=O)c3)CC2)nc1` [Example 11, 5-(1-(5-Acetylpyrimidin-2-yl)piperidin-4-yloxy)-2-(4-(methylsulfonyl)phenyl)pyridazin-3(2H)-one], the figure is 4600 nM.
